# Test results from US20180086744A1, “COMBINATION TREATMENT OF CANCER COMPRISING EGFR/HER2 INHIBITORS” (Boehringer Ingelheim International GmbH, priority 2005, published 2018).
# Experiments:
# SKOV-3 cells = assay: anchorage independent SKOV-3 cell assay (soft agar); type: cell-based, human
# Protocol: SKOV-3 cells are grown on a soft agar layer in the presence of 2 nM BIBW2992BS or three concentrations of 5FU (200 nM, 400 nM, 800 nM) or in combination of both.
# [1] = tested on: cell lines expressing double mutant EGF receptors; details: cited from earlier work
# [2] = tested on: double mutant EGF receptors; details: cell lines expressing double mutant EGF receptors; cited from earlier work
compound,measurement,setting,value
"O=c1[nH]cc(F)c(=O)[nH]1 [5FU, 5-fluorouracile]",inhibition of cell growth,SKOV-3 cells; 200 nM,No inhibition
same,inhibition of cell growth,SKOV-3 cells; 400 nM,No inhibition
same,inhibition at 0.8 µM,"SKOV-3 cells; Homo sapiens, SK-OV-3, 800 nM, read-out: inhibition of cell growth",13%
"CN(C)C/C=C/C(=O)Nc1cc2c(Nc3ccc(F)c(Cl)c3)ncnc2cc1O[C@H]1CCOC1 [BIBW2992, 4-[(3-chloro-4-fluorophenyl)amino]-6-{[4-(N,N-dimethylamino)-1-oxo-2-buten-1-yl]amino}-7-((S)-tetrahydrofuran-3-yloxy)-quinazoline]",inhibition at 0.002 µM,"SKOV-3 cells; Homo sapiens, SK-OV-3, 2 nM, read-out: inhibition of cell growth",20%
"CC#CC(=O)Nc1ccc2ncnc(Nc3cccc(Br)c3)c2c1 [CL 387,785]",inhibition of proliferation,[1],able to inhibit
same,inhibition of EGF-induced EGFR phosphorylation,[2],able to inhibit
